# Laboratory results: ChEMBL document CHEMBL1782027, “Synthesis and evaluation of heterobivalent tacrine derivatives as potential multi-functional anti-Alzheimer agents” (Eur J Med Chem, 2011)
# pIC50: −log10 of the molar value. The source made the active and inactive calls. No cut-off for these calls is given here.
# Columns and labels:
# [1] = target: Cholinesterase (Equus caballus, UniProt P81908)
# Description: Inhibition of equine serum BuChE assessed as inhibition of butyrylthiocholine chloride substrate hydrolysis incubated for 15 mins before substrate addition measured by spectrophotometry
# [2] = target: Acetylcholinesterase (Electrophorus electricus, UniProt O42275)
# Description: Inhibition of electric eel AChE assessed as inhibition of acetylthiocholine chloride substrate hydrolysis incubated for 15 mins before substrate addition measured by spectrophotometry
# [3] = Inhibition of amyloid beta (1 to 42) self-aggregation at 20 uM after 48 hrs by thioflavin T fluorescent dye assay
# [4] = target: Acetylcholinesterase (Electrophorus electricus) (UniProt O42275); assay: Binding affinity at electric eel AChE catalytic active site assessed as inhibition of acetylthiocholine chloride substrate hydrolysis incubated for 15 mins before substrate addition measured by spectrophotometry based Lineweaver-Burk plot analysis
# Sequence of Acetylcholinesterase (Electrophorus electricus) (O42275 24-633 limits assumed): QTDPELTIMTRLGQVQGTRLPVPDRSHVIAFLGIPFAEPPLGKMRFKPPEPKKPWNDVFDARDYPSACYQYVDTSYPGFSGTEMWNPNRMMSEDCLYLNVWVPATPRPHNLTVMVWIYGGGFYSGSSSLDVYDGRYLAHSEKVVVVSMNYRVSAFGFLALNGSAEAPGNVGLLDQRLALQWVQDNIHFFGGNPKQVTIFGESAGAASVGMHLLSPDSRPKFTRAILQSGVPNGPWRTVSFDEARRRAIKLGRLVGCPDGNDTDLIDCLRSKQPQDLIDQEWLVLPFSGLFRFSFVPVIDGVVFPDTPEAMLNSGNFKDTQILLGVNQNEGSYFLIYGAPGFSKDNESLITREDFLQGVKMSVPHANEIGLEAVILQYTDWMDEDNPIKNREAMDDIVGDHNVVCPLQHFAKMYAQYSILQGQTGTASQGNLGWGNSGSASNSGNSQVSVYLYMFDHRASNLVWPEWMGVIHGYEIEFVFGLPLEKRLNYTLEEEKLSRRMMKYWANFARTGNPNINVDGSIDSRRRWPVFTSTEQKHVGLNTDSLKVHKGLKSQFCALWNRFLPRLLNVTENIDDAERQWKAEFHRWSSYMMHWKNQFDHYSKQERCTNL
# [5] = target: Acetylcholinesterase (Electrophorus electricus) (UniProt O42275); assay: Binding affinity at electric eel AChE peripheral anionic site assessed as inhibition of acetylthiocholine chloride substrate hydrolysis incubated for 15 mins before substrate addition measured by spectrophotometry based Lineweaver-Burk plot analysis
# Sequence of Cholinesterase (P81908 whole entry): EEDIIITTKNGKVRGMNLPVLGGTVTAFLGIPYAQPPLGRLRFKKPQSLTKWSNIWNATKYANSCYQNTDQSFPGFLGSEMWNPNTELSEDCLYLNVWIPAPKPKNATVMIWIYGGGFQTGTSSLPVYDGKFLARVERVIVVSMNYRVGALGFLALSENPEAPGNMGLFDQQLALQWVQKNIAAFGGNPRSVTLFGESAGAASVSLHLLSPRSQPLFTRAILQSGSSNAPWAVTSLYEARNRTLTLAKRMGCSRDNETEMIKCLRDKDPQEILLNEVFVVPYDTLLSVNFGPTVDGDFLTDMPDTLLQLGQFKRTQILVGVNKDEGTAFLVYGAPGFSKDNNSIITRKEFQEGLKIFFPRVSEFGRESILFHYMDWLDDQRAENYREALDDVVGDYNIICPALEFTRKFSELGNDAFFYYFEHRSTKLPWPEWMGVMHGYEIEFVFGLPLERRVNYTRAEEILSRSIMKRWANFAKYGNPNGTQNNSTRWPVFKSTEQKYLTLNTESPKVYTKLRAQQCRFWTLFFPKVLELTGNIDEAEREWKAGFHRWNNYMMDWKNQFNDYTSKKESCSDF
# Sequence of Acetylcholinesterase (O42275 whole entry): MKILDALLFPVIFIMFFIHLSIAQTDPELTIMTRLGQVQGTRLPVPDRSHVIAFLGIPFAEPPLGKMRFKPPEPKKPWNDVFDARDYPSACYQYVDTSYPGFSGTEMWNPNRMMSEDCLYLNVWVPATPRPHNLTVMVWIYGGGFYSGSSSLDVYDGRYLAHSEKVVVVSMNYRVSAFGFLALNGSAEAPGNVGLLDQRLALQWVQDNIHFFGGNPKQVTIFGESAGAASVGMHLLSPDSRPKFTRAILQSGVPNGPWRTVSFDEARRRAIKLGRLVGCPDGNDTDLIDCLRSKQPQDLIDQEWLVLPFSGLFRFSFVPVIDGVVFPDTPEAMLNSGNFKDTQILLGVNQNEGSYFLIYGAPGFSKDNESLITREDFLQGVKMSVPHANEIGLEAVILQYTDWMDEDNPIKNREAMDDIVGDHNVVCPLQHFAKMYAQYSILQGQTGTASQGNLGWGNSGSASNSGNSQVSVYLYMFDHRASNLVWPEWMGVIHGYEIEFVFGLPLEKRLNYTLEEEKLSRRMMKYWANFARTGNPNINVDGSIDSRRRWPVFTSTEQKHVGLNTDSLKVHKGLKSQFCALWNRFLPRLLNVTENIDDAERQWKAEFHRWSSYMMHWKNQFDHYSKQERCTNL
Structure (SMILES),pIC50 [1],pIC50 [2],inhibition [3],inhibition [4],inhibition [5]
c1ccc2c(NCCCCCCCCNCc3ccc4c(c3)OCO4)c3c(nc2c1)CCCC3,8.46,8.21,,,
COc1cc(CNCCCCCCNc2c3c(nc4ccccc24)CCCC3)ccc1O,8.03,7.36,,,
Oc1cccc(CNCCCCCCCCNc2c3c(nc4ccccc24)CCCC3)c1,8.31,7.82,,,
COc1ccc(CNCCCCCCCCNc2c3c(nc4ccccc24)CCCC3)cc1,8.32,7.82,,,
COc1ccc(CNCCCCCNc2c3c(nc4ccccc24)CCCC3)cc1OC,7.61,6.98,,,
COc1cc(/C=C/C(=O)CC(=O)/C=C/c2ccc(O)c(OC)c2)ccc1O,,,50%,,
COc1ccc(CNCCCCCCNc2c3c(nc4ccccc24)CCCC3)cc1OC,,,Active,,
c1ccc2c(NCCCCCCCCNCc3ccncc3)c3c(nc2c1)CCCC3,8.33,8.33,,,
O=C(NCCCCCCCCNc1c2c(nc3ccccc13)CCCC2)c1ccncc1,7.41,7.41,,,
Oc1ccc(CNCCCCCCNc2c3c(nc4ccccc24)CCCC3)cc1,8.12,7.59,,,
COc1cc(CNCCCCCCCCNc2c3c(nc4ccccc24)CCCC3)ccc1O,8.47,8.34,71%,Active,Active
COc1cc(CNCCCCCCCCNc2c3c(nc4ccccc24)CCCC3)cc(OC)c1O,8.39,8.34,,,
COc1ccc(CNCCCCNc2c3c(nc4ccccc24)CCCC3)cc1OC,7.43,6.44,Active,,
Oc1ccc(CNCCCCCCCCNc2c3c(nc4ccccc24)CCCC3)cc1,8.27,8.13,,,
Oc1ccccc1CNCCCCCCCCNc1c2c(nc3ccccc13)CCCC2,7.99,7.90,,,
